Results: ChEMBL document CHEMBL1156328, “Synthesis of cycloalkane-annelated 3-phenylsulfonyl-pyrazolo[1,5-a]pyrimidines and their evaluation as 5-HT6 receptor antagonists” (Bioorg Med Chem Lett, 2010)
pIC50: −log10 of the molar value. Active and inactive are the calls of the source. No cut-off for these calls is given here.

What was measured:
hERG (KCNH2) = hERG (KCNH2) (Homo sapiens, UniProt Q12809); experiment: Inhibition of human recombinant ERG at 10 uM by patch clamp assay; conditions: recombinant human ERG channel
Chain of hERG (KCNH2) (Q12809 whole entry): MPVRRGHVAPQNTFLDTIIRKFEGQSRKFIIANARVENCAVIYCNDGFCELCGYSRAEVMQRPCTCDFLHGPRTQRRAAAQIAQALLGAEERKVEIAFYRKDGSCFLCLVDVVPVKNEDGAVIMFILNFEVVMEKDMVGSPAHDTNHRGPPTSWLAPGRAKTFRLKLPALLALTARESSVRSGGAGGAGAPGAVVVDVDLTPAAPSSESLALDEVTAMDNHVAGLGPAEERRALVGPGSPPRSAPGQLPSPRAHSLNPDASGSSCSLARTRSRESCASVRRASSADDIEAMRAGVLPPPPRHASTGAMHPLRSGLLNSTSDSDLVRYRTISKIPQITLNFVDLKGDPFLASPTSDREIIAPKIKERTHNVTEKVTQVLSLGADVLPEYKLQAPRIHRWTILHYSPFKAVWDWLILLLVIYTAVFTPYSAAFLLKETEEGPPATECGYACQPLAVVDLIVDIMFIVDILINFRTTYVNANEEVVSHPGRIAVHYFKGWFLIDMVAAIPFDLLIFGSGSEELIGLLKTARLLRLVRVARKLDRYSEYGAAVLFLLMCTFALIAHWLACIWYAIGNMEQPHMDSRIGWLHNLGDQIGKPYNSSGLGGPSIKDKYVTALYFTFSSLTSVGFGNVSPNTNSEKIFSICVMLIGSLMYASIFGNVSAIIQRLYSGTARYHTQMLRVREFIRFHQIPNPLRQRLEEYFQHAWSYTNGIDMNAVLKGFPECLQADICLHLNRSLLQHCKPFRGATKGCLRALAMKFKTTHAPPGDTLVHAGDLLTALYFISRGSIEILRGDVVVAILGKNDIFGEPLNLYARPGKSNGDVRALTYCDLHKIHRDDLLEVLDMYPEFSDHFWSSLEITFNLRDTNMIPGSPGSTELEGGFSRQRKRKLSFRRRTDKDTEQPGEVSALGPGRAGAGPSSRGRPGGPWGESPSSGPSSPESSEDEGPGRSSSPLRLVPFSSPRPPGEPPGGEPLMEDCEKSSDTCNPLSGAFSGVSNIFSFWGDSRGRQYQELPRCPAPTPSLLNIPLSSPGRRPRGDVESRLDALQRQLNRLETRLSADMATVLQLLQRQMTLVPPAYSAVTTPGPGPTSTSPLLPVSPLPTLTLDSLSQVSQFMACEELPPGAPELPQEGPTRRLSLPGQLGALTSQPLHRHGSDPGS

[1] = target: T1, 5-hydroxytryptamine receptor 2B (Homo sapiens, UniProt P41595); experiment: Agonist activity at human 5HT2B receptor in HEK293 cells assessed as stimulation of intracellular calcium mobilization by Fura-2AM dye based spectrofluorimetry
T1 sequence (P41595 whole entry): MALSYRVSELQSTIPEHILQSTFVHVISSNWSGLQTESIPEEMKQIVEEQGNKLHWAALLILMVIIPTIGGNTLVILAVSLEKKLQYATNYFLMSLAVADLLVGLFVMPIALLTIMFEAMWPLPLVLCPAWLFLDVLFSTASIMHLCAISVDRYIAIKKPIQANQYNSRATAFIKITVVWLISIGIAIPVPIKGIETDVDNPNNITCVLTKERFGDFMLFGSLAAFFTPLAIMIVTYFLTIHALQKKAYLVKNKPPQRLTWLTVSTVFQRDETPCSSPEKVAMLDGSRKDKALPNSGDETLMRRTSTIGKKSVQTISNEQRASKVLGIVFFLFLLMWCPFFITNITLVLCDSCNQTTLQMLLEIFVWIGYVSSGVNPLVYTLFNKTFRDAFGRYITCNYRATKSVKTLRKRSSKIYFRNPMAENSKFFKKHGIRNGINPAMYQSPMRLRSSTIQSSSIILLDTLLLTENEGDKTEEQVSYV

[2] = target: T1, 5-hydroxytryptamine receptor 2B; experiment: Antagonist activity at human 5HT2B receptor in HEK293 cells assessed as inhibition of alpha-ME-5-HT-induced intracellular calcium mobilization pretreated for 15 secs before alphaME-5-HT addition by Fura-2AM dye based spectrofluorimetry
[3] = target: 5-hydroxytryptamine receptor 6 (Homo sapiens, UniProt P50406); experiment: Antagonist activity at human 5HT6 receptor in HEK293 cells assessed as inhibition of serotonin-induced cAMP accumulation pretreated for 15 mins before serotonin challenge measured after 30 mins; format: functional, cell-based
Chain of 5-hydroxytryptamine receptor 6 (P50406 whole entry): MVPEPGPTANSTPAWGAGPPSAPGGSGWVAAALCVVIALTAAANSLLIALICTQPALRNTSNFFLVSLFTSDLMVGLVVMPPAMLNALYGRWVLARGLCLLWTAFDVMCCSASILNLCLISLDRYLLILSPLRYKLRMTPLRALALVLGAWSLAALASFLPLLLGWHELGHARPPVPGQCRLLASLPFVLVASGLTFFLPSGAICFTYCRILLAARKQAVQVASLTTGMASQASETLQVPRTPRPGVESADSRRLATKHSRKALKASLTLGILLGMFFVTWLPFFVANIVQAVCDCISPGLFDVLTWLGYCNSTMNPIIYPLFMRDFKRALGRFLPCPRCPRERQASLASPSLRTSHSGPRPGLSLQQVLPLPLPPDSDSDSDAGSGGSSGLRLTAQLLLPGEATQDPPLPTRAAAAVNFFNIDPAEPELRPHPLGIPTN

For CSc1nn2c(C)c3c(nc2c1S(=O)(=O)c1ccccc1)CCCC3, the inhibition at 10 µM (hERG (KCNH2)) was 25%, the Activity [1] was “inactive” and the pIC50 [2] was 6.90.

With CSc1nn2c3c(c(C)nc2c1S(=O)(=O)c1ccccc1)CCCC3 the pIC50 [3] was 7.77, the Activity [1] was “inactive” and the pIC50 [2] was 6.79.

In the case of CSc1nn2c3c(cnc2c1S(=O)(=O)c1ccccc1)CCCC3, the pIC50 [3] was 8.12, the Activity [1] was “inactive” and the pIC50 [2] was 6.39.

CSc1nn2cc3c(nc2c1S(=O)(=O)c1ccccc1)CCCC3 gave a pIC50 [3] of 7.01.

CSc1nn2c3c(cnc2c1S(=O)(=O)c1ccccc1)CCC3 was tested, and the pIC50 [3] was 8.22, the Activity [1] was “inactive” and the pIC50 [2] was 6.93.
